pEC50: −log10 of the molar value.
Each molecule was assayed against T1, A2 receptor of the coronary artery (Cavia porcellus, UniProt P46616) (assay: Coronary blood flow increase (A2 effect), isolated perfused Langendorff heart). Conditions: concentration for half-maximal increase in coronary flow; infusion into aortic cannula, stepwise every 5 minutes.
T1 construct: perfused hearts from female Sprague-Dawley guinea pigs in an isolated Langendorff heart preparation; from tissue; host or cells: isolated perfused guinea pig heart (Langendorff), coronary vasculature
T1 sequence (P46616 whole entry, the tested form may be a part): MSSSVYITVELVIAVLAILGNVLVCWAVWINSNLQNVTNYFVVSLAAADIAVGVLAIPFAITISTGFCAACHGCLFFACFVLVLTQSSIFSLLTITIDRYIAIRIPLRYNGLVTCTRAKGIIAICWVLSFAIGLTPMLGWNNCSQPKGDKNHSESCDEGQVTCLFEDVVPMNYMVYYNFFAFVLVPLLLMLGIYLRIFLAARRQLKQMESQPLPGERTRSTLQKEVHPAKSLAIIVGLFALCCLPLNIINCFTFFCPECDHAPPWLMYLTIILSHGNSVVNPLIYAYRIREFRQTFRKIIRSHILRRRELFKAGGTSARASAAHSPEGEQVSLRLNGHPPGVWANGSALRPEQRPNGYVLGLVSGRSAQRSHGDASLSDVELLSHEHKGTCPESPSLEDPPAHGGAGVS
Design: species or system guinea pig (female Sprague-Dawley guinea pigs)
Protocol: (§1) Assays of the cardiovascular potency of the above compounds at the A1 receptors of the SA node and at the A2 receptor of the coronary artery employed perfused hearts from female Sprague-Dawley guinea pigs in an isolated Langendorff heart preparation. An assay consists of an infusion of a spectophotometrically standardized solution of test compound directly into the aortic cannula at rates increasing stepwise every 5 minutes. Collection of the total cardiac effluent during the first half of each infusion period provides a measure of coronary flow (A2 effect). The concentration of test compound required to produce a half-maximal increase in coronary flow is determined. Registration of the ECG assesses the effect of the test compound on SA node (stimulus to Q interval, A1 effect). The concentration of test compound required to produce a half-maximal prolongation of stimulus to Q interval is determined. […] The ratio of A1 and A2 effects of test compounds are calculated to provide the selectivity ratio.

SMILES | pEC50
CC[C@@H](COc1nc(N)c2ncn([C@@H]3O[C@H](CO)[C@@H](O)[C@H]3O)c2n1)c1ccccc1 [Example 18] | 6.43

Same assay, conditions: qualitative statement

SMILES | affinity and selectivity for A2 adenosine receptors (in words)
Nc1nc(OCCc2ccc(F)cc2)nc2c1ncn2[C@@H]1O[C@H](CO)[C@@H](O)[C@H]1O [Example 2, 2-[2-(4-fluorophenyl)ethoxy]adenosine] | high affinity and selectivity
COc1ccc(CCOc2nc(N)c3ncn([C@@H]4O[C@H](CO)[C@@H](O)[C@H]4O)c3n2)cc1 [Example 10, 2-[2-(4-methoxyphenyl)ethoxy]adenosine] | high affinity and selectivity
CCNC(=O)[C@H]1O[C@@H](n2cnc3c(N)nc(OCCc4ccccc4)nc32)[C@H](O)[C@@H]1O [Example 22, 2-(2-phenyl)ethoxy-5'-N-ethylcarboxamidoadenosine] | high affinity and selectivity

Same assay, conditions: ratio of SQ prolongation ED50 (A1) to coronary flow EC50 (A2)

SMILES | Selectivity (A1/A2)
Nc1nc(OCCCc2ccccc2)nc2c1ncn2[C@@H]1O[C@H](CO)[C@@H](O)[C@H]1O [Example 1, 2-(3-phenyl-1-propoxy)adenosine] | 326
Nc1nc(OCCc2ccc(F)cc2)nc2c1ncn2[C@@H]1O[C@H](CO)[C@@H](O)[C@H]1O [Example 2, 2-[2-(4-fluorophenyl)ethoxy]adenosine] | 29432
Nc1nc(OC2CCCC2)nc2c1ncn2[C@@H]1O[C@H](CO)[C@@H](O)[C@H]1O [Example 3, 2-Cyclopentyloxyadenosine] | 866
Nc1nc(OC2CCCCC2)nc2c1ncn2[C@@H]1O[C@H](CO)[C@@H](O)[C@H]1O [Example 4, 2-Cyclohexyloxyadenosine] | 152
Nc1nc(OCc2ccccc2)nc2c1ncn2[C@@H]1O[C@H](CO)[C@@H](O)[C@H]1O [Example 6, 2-benzyloxyadenosine] | 15
Nc1nc(OCCc2ccccc2)nc2c1ncn2[C@@H]1O[C@H](CO)[C@@H](O)[C@H]1O [Example 7, 2-(2-phenylethoxy)adenosine] | 7126
COc1ccccc1CCOc1nc(N)c2ncn([C@@H]3O[C@H](CO)[C@@H](O)[C@H]3O)c2n1 [Example 8, 2-[2-(2-methoxyphenyl)ethoxy]adenosine] | 1109
COc1cccc(CCOc2nc(N)c3ncn([C@@H]4O[C@H](CO)[C@@H](O)[C@H]4O)c3n2)c1 [Example 9, 2-[2-(3-methoxyphenyl)ethoxy]adenosine] | 6238
COc1ccc(CCOc2nc(N)c3ncn([C@@H]4O[C@H](CO)[C@@H](O)[C@H]4O)c3n2)cc1 [Example 10, 2-[2-(4-methoxyphenyl)ethoxy]adenosine] | 14089
Cc1ccccc1CCOc1nc(N)c2ncn([C@@H]3O[C@H](CO)[C@@H](O)[C@H]3O)c2n1 [Example 11, 2-[2-(2-methylphenyl)ethoxy]adenosine] | 6610
COc1cc(CCOc2nc(N)c3ncn([C@@H]4O[C@H](CO)[C@@H](O)[C@H]4O)c3n2)cc(OC)c1OC [Example 12, 2-[2-(3,4,5-trimethoxyphenyl)ethoxy]adenosine] | 2151
Nc1nc(OCCc2cccs2)nc2c1ncn2[C@@H]1O[C@H](CO)[C@@H](O)[C@H]1O [Example 13, 2-[2-(2-thienyl)ethoxy]adenosine] | 3212
CC(COc1nc(N)c2ncn([C@@H]3O[C@H](CO)[C@@H](O)[C@H]3O)c2n1)c1ccccc1 (stereo partly drawn) [Example 17, 2-(2-phenyl-1-propoxy)adenosine] | 5899
CC[C@@H](COc1nc(N)c2ncn([C@@H]3O[C@H](CO)[C@@H](O)[C@H]3O)c2n1)c1ccccc1 [Example 18] | 50
CC[C@H](COc1nc(N)c2ncn([C@@H]3O[C@H](CO)[C@@H](O)[C@H]3O)c2n1)c1ccccc1 [Example 19, 2-[(2S)-phenyl-1-butoxy]adenosine] | 872
Nc1nc(OCCCCc2ccccc2)nc2c1ncn2[C@@H]1O[C@H](CO)[C@@H](O)[C@H]1O [Example 20, 2-(4-phenyl-1-butoxy)adenosine] | 743
CCNC(=O)[C@H]1O[C@@H](n2cnc3c(N)nc(OCCc4ccccc4)nc32)[C@H](O)[C@@H]1O [Example 22, 2-(2-phenyl)ethoxy-5'-N-ethylcarboxamidoadenosine] | 11509

What follows are molecules tested against T2, A1 receptors of the SA node (Cavia porcellus, UniProt P47745) (assay: SQ (stimulus to Q) interval prolongation (A1 effect), isolated perfused Langendorff heart). Conditions: concentration for half-maximal prolongation of stimulus to Q interval; infusion into aortic cannula, stepwise every 5 minutes; read-out: SQ Prolongation (A1) ED50.
T2 construct: perfused hearts from female Sprague-Dawley guinea pigs in an isolated Langendorff heart preparation; from tissue; host or cells: isolated perfused guinea pig heart (Langendorff), nodal/conducting tissue
T2 sequence (P47745 1-326): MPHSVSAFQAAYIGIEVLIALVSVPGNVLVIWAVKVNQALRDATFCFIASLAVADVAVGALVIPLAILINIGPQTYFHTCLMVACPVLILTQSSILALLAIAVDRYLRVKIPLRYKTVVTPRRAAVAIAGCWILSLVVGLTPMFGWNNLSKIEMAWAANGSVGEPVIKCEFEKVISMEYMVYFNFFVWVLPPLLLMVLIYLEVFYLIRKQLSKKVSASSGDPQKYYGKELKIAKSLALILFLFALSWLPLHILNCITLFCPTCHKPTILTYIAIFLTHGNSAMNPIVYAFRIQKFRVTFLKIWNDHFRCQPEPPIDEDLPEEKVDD
Design: species or system guinea pig (female Sprague-Dawley guinea pigs)
Protocol: as §1

SMILES | pEC50
Nc1nc(OCCCc2ccccc2)nc2c1ncn2[C@@H]1O[C@H](CO)[C@@H](O)[C@H]1O [Example 1, 2-(3-phenyl-1-propoxy)adenosine] | 4.70
Nc1nc(OCCc2ccc(F)cc2)nc2c1ncn2[C@@H]1O[C@H](CO)[C@@H](O)[C@H]1O [Example 2, 2-[2-(4-fluorophenyl)ethoxy]adenosine] | 4.59
Nc1nc(OCc2ccccc2)nc2c1ncn2[C@@H]1O[C@H](CO)[C@@H](O)[C@H]1O [Example 6, 2-benzyloxyadenosine] | 5.20
Nc1nc(OCCc2ccccc2)nc2c1ncn2[C@@H]1O[C@H](CO)[C@@H](O)[C@H]1O [Example 7, 2-(2-phenylethoxy)adenosine] | 4.70
COc1ccccc1CCOc1nc(N)c2ncn([C@@H]3O[C@H](CO)[C@@H](O)[C@H]3O)c2n1 [Example 8, 2-[2-(2-methoxyphenyl)ethoxy]adenosine] | 4.45
COc1cccc(CCOc2nc(N)c3ncn([C@@H]4O[C@H](CO)[C@@H](O)[C@H]4O)c3n2)c1 [Example 9, 2-[2-(3-methoxyphenyl)ethoxy]adenosine] | 4.79
COc1ccc(CCOc2nc(N)c3ncn([C@@H]4O[C@H](CO)[C@@H](O)[C@H]4O)c3n2)cc1 [Example 10, 2-[2-(4-methoxyphenyl)ethoxy]adenosine] | 4.71
Cc1ccccc1CCOc1nc(N)c2ncn([C@@H]3O[C@H](CO)[C@@H](O)[C@H]3O)c2n1 [Example 11, 2-[2-(2-methylphenyl)ethoxy]adenosine] | 4.60
COc1cc(CCOc2nc(N)c3ncn([C@@H]4O[C@H](CO)[C@@H](O)[C@H]4O)c3n2)cc(OC)c1OC [Example 12, 2-[2-(3,4,5-trimethoxyphenyl)ethoxy]adenosine] | 4.33
Nc1nc(OCCc2cccs2)nc2c1ncn2[C@@H]1O[C@H](CO)[C@@H](O)[C@H]1O [Example 13, 2-[2-(2-thienyl)ethoxy]adenosine] | 4.93
Nc1nc(OCCc2cccc3ccccc23)nc2c1ncn2[C@@H]1O[C@H](CO)[C@@H](O)[C@H]1O [Example 15, 2-[2-(1-naphthyl)ethoxy]adenosine] | 5.07
Nc1nc(OCCc2c[nH]c3ccccc23)nc2c1ncn2[C@@H]1O[C@H](CO)[C@@H](O)[C@H]1O [Example 16, 2-[2-(3-indolyl)ethoxy]adenosine] | 4.85
CC[C@@H](COc1nc(N)c2ncn([C@@H]3O[C@H](CO)[C@@H](O)[C@H]3O)c2n1)c1ccccc1 [Example 18] | 4.73
Nc1nc(OCCCCCc2ccccc2)nc2c1ncn2[C@@H]1O[C@H](CO)[C@@H](O)[C@H]1O [Example 21, 2-(5-phenyl-1-pentoxy)adenosine] | 5.34
Nc1nc(OCCc2ccc3ccccc3c2)nc2c1ncn2[C@@H]1O[C@H](CO)[C@@H](O)[C@H]1O [Example 24, 2-[2-(2-naphthyl)ethoxy]adenosine] | 4.94

Reference: patent USRE36494E, “2-aralkoxy and 2-alkoxy adenosine derivatives as coronary vasodilators and antihypertensive agents” (Discovery Therapeutics, Inc., priority 1993, dated 2000)
